Several values for one entry are separate records, joined by “and”; a condition that tells them apart may be missing. Equal values may be shown once.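 Briefly, cells in 96-well plates were exposed to five compound concentrations for 48 h, and endpoints were estimated by linear interpolation. GI50: concentration for 50% inhibition of growth. TGI denotes the concentration required for complete inhibition of growth.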

Among the test systems are BT-549 breast; COLO 205 colon; DU-145 prostate; HS 578T breast; NCI/ADR-RES ovarian; PC-3 prostate; MCF7 breast; HCC-2998 colon; KM20L2 colon; M19-MEL melanoma.
Common to all, as to assay: growth of human tumour cells (NCI), 48 h

`CC(C)=CCC/C(C)=C/CC/C(C)=C/[C@@H]1[C@@H](CO)[C@]1(C)CC/C=C(\C)CCC=C(C)C`: the TGI in the test with BT-549 breast was above 100 µM; with COLO 205 colon, above 100 µM; in the test on DU-145 prostate, above 100 µM; with HS 578T breast it was above 100 µM; in the test on NCI/ADR-RES ovarian, 55 µM; with PC-3 prostate it was 56.5 µM.
In the case of `CCCCCCOC(=O)C(N)Cc1ccc(OC)cc1` (centres undefined), the TGI in the test on BT-549 breast, in the test on COLO 205 colon, with DU-145 prostate, with HS 578T breast, in the test on MCF7 breast and with NCI/ADR-RES ovarian was above 100 µM throughout. The same compound yielded a TGI in the test on PC-3 prostate above 100 µM.
Turning to `CC1=NN(c2cccc(Cl)c2)C(=N/c2nc3ccccc3s2)/C1=C\C=C\c1ccccc1`, the TGI with DU-145 prostate is above 100 µM; in the test on HS 578T breast, 87.6 µM; with MCF7 breast, above 100 µM; in the test on NCI/ADR-RES ovarian it was above 100 µM.
Turning to `COC1OC(C(=O)CP(=O)(OC)OC)C(OCc2ccccc2)C(OCc2ccccc2)C1OCc1ccccc1` (centres undefined), the TGI was 32 µM and 33.8 µM with BT-549 breast; 32.7 µM and 33.5 µM in the test with COLO 205 colon; 31.3 µM and 33.5 µM in the test with DU-145 prostate; 31.5 µM and 29.7 µM in the test on HCC-2998 colon; 63.4 µM and 74.8 µM in the test on HS 578T breast; 30.5 µM in the test on MCF7 breast. For the same compound, the TGI is 42.6 µM and 46 µM with NCI/ADR-RES ovarian; 28.1 µM and 28.7 µM with PC-3 prostate.
In the case of `Cc1cc(N2CCOCC2)nc(N(CCCNc2ccnc3cc(Cl)ccc23)Cc2ccc3c(c2)OCO3)n1`, the results for the GI50 in the test with DU-145 prostate, in the test on HS 578T breast and in the test with PC-3 prostate were 1.43 µM, 1.97 µM and 1.62 µM, respectively. In addition, the figures for the TGI with DU-145 prostate, in the test on HS 578T breast and with PC-3 prostate were 2.93 µM, 4.61 µM and 3.24 µM, respectively.
Consider `CCOc1cc(NC(C)=O)ccc1C(=O)N/N=C/c1ccco1`, for which the TGI with BT-549 breast, with COLO 205 colon, with DU-145 prostate, in the test with HCC-2998 colon, in the test with HS 578T breast and in the test on MCF7 breast was above 100 µM throughout. The TGI in the test with NCI/ADR-RES ovarian and with PC-3 prostate was above 100 µM throughout.
`COC(=O)c1c(O)ccc2c1c1c(n2Cc2ccccn2)C(=O)c2ccccc2C1`: the TGI is above 100 µM in the test with BT-549 breast; 28.5 µM in the test on COLO 205 colon; above 100 µM in the test with DU-145 prostate; above 100 µM with HS 578T breast; above 100 µM with MCF7 breast; above 100 µM in the test with NCI/ADR-RES ovarian. Moreover, the TGI in the test with PC-3 prostate is 90.2 µM.
As to `NC(CCc1ccccc1)(C(=O)O)c1ccccc1` (centres undefined), the TGI with BT-549 breast, in the test with DU-145 prostate, in the test on HCC-2998 colon, in the test with HS 578T breast, with NCI/ADR-RES ovarian and in the test with PC-3 prostate was above 100 µM each time.
Take `COc1cc(S(=O)(=O)N/N=C/C=C/c2ccccc2)c(OC)cc1NC(C)=O`: the TGI with BT-549 breast is above 100 µM; in the test on COLO 205 colon, 45.8 µM; in the test with DU-145 prostate it was above 100 µM; in the test with HS 578T breast, above 100 µM; in the test with MCF7 breast, above 100 µM; with NCI/ADR-RES ovarian, above 100 µM. Further, in the test on PC-3 prostate, the TGI is above 100 µM.
`CC(C)(C)OC(=O)N1C(C2=COc3ccccc3O2)=COc2cccnc21`: the TGI was 5.42 µM in the test with BT-549 breast; 3.64 µM in the test on COLO 205 colon; 2.76 µM in the test with DU-145 prostate; 3.16 µM with HCC-2998 colon; 19.1 µM in the test on HS 578T breast; 3.08 µM with MCF7 breast. In addition, the TGI is 4.7 µM in the test with NCI/ADR-RES ovarian and 6.04 µM in the test on PC-3 prostate.
Take `CN(C)C/C=C(/c1ccc(Br)cc1)c1cccnc1`: the TGI in the test on BT-549 breast was above 100 µM; with COLO 205 colon it was 32.4 µM; in the test on DU-145 prostate, above 100 µM; with HCC-2998 colon, 29.8 µM; in the test on HS 578T breast, above 100 µM; in the test on MCF7 breast it was above 100 µM. Also, the TGI in the test on NCI/ADR-RES ovarian and in the test on PC-3 prostate was above 100 µM in each case.
On to `COc1cccc(/C=N/[N-]C(N)=O)c1[O-].[Cu+2].[OH3+].c1cnc2c(c1)ccc1cccnc12`, for which the TGI was 32.5 µM in the test with COLO 205 colon, 49.1 µM in the test on HCC-2998 colon and above 100 µM in the test on KM20L2 colon.
Turning to `O=S1c2ccccc2N=C(c2ccc3ccccc3c2)CC1c1ccccc1` (centres undefined), the TGI with COLO 205 colon was found to be 40 µM; in the test with HCC-2998 colon, 36.6 µM; with KM20L2 colon it was 35.7 µM; with M19-MEL melanoma it was 34.9 µM.
Consider `CCOC(=O)C(C)OC(=O)c1ccc(C)cc1` (centres undefined), for which the TGI with COLO 205 colon, in the test on HCC-2998 colon, with KM20L2 colon and in the test on M19-MEL melanoma was above 100 µM throughout.
`CC(C)(C)OC(=O)N1C[C@H](CC(=O)OCc2ccccc2)C[C@H]1C(=O)OCC(Cl)(Cl)Cl`: the TGI is above 50 µM in the test with BT-549 breast; 9.38 µM with COLO 205 colon; above 50 µM in the test with DU-145 prostate; 45.3 µM with HCC-2998 colon; above 50 µM with HS 578T breast; above 50 µM in the test on MCF7 breast. In addition, the TGI in the test with NCI/ADR-RES ovarian and with PC-3 prostate was above 50 µM throughout.
Take `O=CC(O)C(O)C(O)COc1cc(CO)cc2c1C(=O)c1ccccc1C2=O` (centres undefined): the TGI in the test on COLO 205 colon, with HCC-2998 colon, in the test with KM20L2 colon and in the test on M19-MEL melanoma was above 100 µM throughout.
Consider `COc1ccc(Cc2nc3cc(Cl)ccc3o2)cc1`, for which the TGI in the test on BT-549 breast was 64.4 µM; with COLO 205 colon it was above 100 µM; in the test on DU-145 prostate, above 100 µM; in the test on HCC-2998 colon, 56.8 µM; in the test on HS 578T breast, above 100 µM; with MCF7 breast, above 100 µM. Moreover, the TGI in the test on NCI/ADR-RES ovarian was 76.9 µM; with PC-3 prostate it was above 100 µM.
Take `CC(C)(C)c1ccc(O)c(Br)c1`: the TGI with BT-549 breast, with COLO 205 colon, in the test on DU-145 prostate, in the test on HCC-2998 colon, with HS 578T breast and in the test on MCF7 breast was above 100 µM in each case. In addition, the TGI with NCI/ADR-RES ovarian and in the test with PC-3 prostate was above 100 µM in each case.
For the compound `NCCCCN`, the TGI in the test with BT-549 breast, in the test with COLO 205 colon, with DU-145 prostate, in the test with HCC-2998 colon, with MCF7 breast and in the test on NCI/ADR-RES ovarian was above 100 µM in each case. The TGI in the test with PC-3 prostate is above 100 µM.
In the case of `C/C(=C\CNc1ncnc2nc(Cl)[nH]c12)CO`, the TGI in the test on COLO 205 colon, in the test on DU-145 prostate, in the test on HCC-2998 colon, in the test on HS 578T breast, with MCF7 breast and in the test with NCI/ADR-RES ovarian was above 100 µM in each case. This compound also came in with a TGI in the test on PC-3 prostate above 100 µM.
As to `C=C1CCCC(C)(C)[C@@H]1CC/C(C)=C/Cn1c2cccc(=O)c-2nc2ccccc21`, the GI50 with COLO 205 colon is 23.8 µM; with M19-MEL melanoma it was 3.07 µM; with MCF7 breast, 4.92 µM; with NCI/ADR-RES ovarian, 4.23 µM. The TGI in the test with HCC-2998 colon is 4.53 µM; with MCF7 breast, > 100 µM and 10.4 µM.
Take `C[C@H](Nc1ccc(C#N)n(C)c1=O)c1cc2cc(Cl)ccc2[nH]c1=O`: the GI50 is 12.2 µM with BT-549 breast; 19 µM in the test on COLO 205 colon; 33 µM in the test with DU-145 prostate; 33.5 µM with HCC-2998 colon; 13.7 µM in the test on HS 578T breast; 23.2 µM in the test on MCF7 breast. The figures for the GI50 in the test with NCI/ADR-RES ovarian and with PC-3 prostate were 26.1 µM and 13.3 µM, respectively. The TGI is 70.1 µM in the test with BT-549 breast; 40.2 µM in the test on COLO 205 colon; above 100 µM with DU-145 prostate; above 100 µM in the test on HCC-2998 colon; above 100 µM with HS 578T breast; above 100 µM in the test on MCF7 breast. Besides, the TGI with NCI/ADR-RES ovarian is above 100 µM; in the test with PC-3 prostate it was 83.5 µM.
Regarding `NC(N)=NS(=O)(=O)c1ccc(Nc2c3ccccc3nc3c(C(=O)N4CCN(CCO)CC4)ccc(Cl)c23)cc1`, the TGI with COLO 205 colon, in the test with HCC-2998 colon, in the test with KM20L2 colon and in the test on M19-MEL melanoma was above 100 µM in each case.
Turning to `Clc1ccc(NCc2nnc(COc3ccc(OCc4nnc(CNc5ccc(Cl)cc5)o4)c(Cl)c3)o2)cc1`, the TGI in the test with BT-549 breast was above 100 µM; in the test on COLO 205 colon it was 25.9 µM; with DU-145 prostate, above 100 µM; in the test on HCC-2998 colon, above 100 µM; in the test with HS 578T breast, above 100 µM; in the test on MCF7 breast, 88.3 µM. Moreover, the TGI in the test on NCI/ADR-RES ovarian was 68.5 µM; in the test on PC-3 prostate, above 100 µM.
Take `O=P(O)(O)OP(=O)(O)O`: the TGI in the test with BT-549 breast, in the test with COLO 205 colon, in the test with DU-145 prostate, with HCC-2998 colon, with HS 578T breast and in the test on MCF7 breast was above 100 µM each time. Moreover, the TGI in the test with NCI/ADR-RES ovarian and in the test with PC-3 prostate was above 100 µM each time.
Take `CCN(CC)/[N+]([O-])=N/OC`: the TGI with HCC-2998 colon, with KM20L2 colon and with M19-MEL melanoma was above 100 µM in each case.
For `CC(Br)C(=O)c1ccc2cc(Br)c3ccccc3c2c1` (centres undefined), the TGI in the test with BT-549 breast turned out to be 28.7 µM; with DU-145 prostate, 31.3 µM; in the test with HCC-2998 colon, 29.6 µM; in the test with HS 578T breast it was 62.9 µM; with MCF7 breast it was 30.1 µM; with NCI/ADR-RES ovarian, 35 µM.
